Assay results taken from patent US11814364B2, “Pyridine N-oxide derivatives useful as factor XIa inhibitors” (Janssen Pharmaceutica NV, priority 2021, dated 2023).
Where a SMILES comes first, the peptide text is derived from it. The star is where a group is joined. AMC = Cc1cc(=O)oc2cc(N*)ccc12; Cbz = O=C(OCc1ccccc1)*

The compounds below were run against human plasma kallikrein (Homo sapiens, UniProt P03952) (assay: Kallikrein inhibition FLINT assay with quenched AMC peptide substrate Z-Gly-Pro-Arg-AMC (end point EP or kinetic KIN reads)). Conditions: kinetic reads at 5 min intervals over 30 min; read-out: Kallikrein (KIN) IC50.
human plasma kallikrein, sequence (P03952 391-638 limits assumed): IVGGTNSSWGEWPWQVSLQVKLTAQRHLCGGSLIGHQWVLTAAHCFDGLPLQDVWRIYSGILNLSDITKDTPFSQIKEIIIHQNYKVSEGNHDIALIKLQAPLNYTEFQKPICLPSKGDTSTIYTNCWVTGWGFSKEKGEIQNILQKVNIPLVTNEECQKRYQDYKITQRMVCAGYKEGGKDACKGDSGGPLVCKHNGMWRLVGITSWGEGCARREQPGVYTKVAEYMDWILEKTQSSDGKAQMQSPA
human plasma kallikrein, sequence (P03952 20-390 partner limits assumed): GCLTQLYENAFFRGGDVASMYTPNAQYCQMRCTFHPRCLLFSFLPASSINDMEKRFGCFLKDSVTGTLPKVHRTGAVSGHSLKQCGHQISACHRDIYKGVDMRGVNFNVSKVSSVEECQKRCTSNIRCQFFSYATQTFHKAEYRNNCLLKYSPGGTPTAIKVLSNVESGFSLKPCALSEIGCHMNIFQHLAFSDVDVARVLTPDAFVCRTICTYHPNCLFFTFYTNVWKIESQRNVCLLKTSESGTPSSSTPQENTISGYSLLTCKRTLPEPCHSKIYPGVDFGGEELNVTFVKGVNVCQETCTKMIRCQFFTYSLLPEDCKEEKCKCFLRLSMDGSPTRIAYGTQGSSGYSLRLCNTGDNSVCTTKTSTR
Assay type: biochemical
Procedure, shortened: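 Enzyme and compound were preincubated 30 min before adding 50 μM AMC substrate in pH 7.5 Tris/NaCl/CaCl2/BSA/CHAPS buffer. AMC release was read at 30 min endpoint or every 5 min.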

IC50 | SMILES
102 nM | COCC[C@H](c1ccc(-c2c(-n3cnnn3)ccc(Cl)c2F)c[n+]1[O-])n1cc(-c2ccn(C(F)F)n2)cn1 [Example P560]
19.8 nM | Cn1nnc(F)c1-c1cnn(C(CCOC(F)F)c2ccc(-c3c(-n4cnnn4)ccc(Cl)c3F)c[n+]2[O-])c1 (stereo not shown) [Example P749]
55.6 nM | CC(C)C(=O)N(C)CC(c1ccc(-c2c(-n3cnnn3)ccc(Cl)c2F)c[n+]1[O-])n1cc(-c2ccnc(F)c2)cn1 (stereo not shown) [Example P418]
189 nM | O=C(NC1CC1)c1ccc(-c2cnn(C(Cc3ccc(F)cc3)c3ccc(-c4c(-c5cnco5)ccc(Cl)c4F)c[n+]3[O-])c2)cc1 (stereo not shown) [Example P136]
5.5 nM | NC(=O)c1ccc(-c2cnn(C(Cc3ncco3)c3ccc(-c4c(-n5cc(C(F)(F)F)nn5)ccc(Cl)c4F)c[n+]3[O-])c2)cc1F (stereo not shown) [Example P909]
215 nM | COC(=O)Nc1ccc(-c2cnn(C(Cc3ccc(Cl)cc3)c3ccc(-c4c(-n5cnnn5)ccc(Cl)c4F)c[n+]3[O-])c2)cc1 (single isomer, unassigned) [Example P159]
17.4 nM | [O-][n+]1cc(-c2c(-n3cc(Br)nn3)ccc(Cl)c2F)ccc1[C@@H](CCOC(F)F)n1cc(-c2ncnn2C(F)F)cn1 [Example P788]
57.6 nM | Cn1ccc(C[C@H](c2ccc(-c3cc(Cl)ccc3C#N)c[n+]2[O-])n2cc(-c3ccc(C(=O)O)cc3)cn2)n1 [Example Q47]
0.3 nM | NC(=O)c1ccc(-c2cnn(C(Cc3ccn(C(F)F)n3)c3ccc(-c4c(-n5cc(C(F)(F)F)nn5)ccc(Cl)c4F)c[n+]3[O-])c2)cc1 (single isomer, unassigned) [Example P908]
95.6 nM | CC(C)(C)c1cc(-c2cnn(C(Cn3cc(F)cn3)c3ccc(-c4c(-n5cnnn5)ccc(Cl)c4F)c[n+]3[O-])c2)cc[n+]1[O-] (stereo not shown) [Example P436]
249 nM | NC(=O)c1ccc(-c2cnn(C(Cc3nccs3)c3ccc(-c4c(-n5cc(C(F)(F)F)nn5)ccc(Cl)c4F)c[n+]3[O-])c2)cc1F (single isomer, unassigned) [Example P942]
53.3 nM | O=C(NC1CC1)c1ccc(-c2cnn(C(CC3CCCCO3)c3ccc(-c4c(-n5cnnn5)ccc(Cl)c4F)c[n+]3[O-])c2)cc1 (single isomer, unassigned) [Example P80]
265 nM | O=C(O)c1ccc(-c2cnn(C(Cc3ccccc3)c3ccc(-c4c(OCC(F)(F)F)ccc(Cl)c4F)c[n+]3[O-])c2)cc1 (stereo not shown) [Example Q4]
3.8 nM | O=C(O)c1ccc(-c2cnn(C(Cc3ccc(Cl)cc3)c3ccc(-c4cc(Cl)ccc4-n4cnnn4)c[n+]3[O-])c2)cc1 (stereo not shown) [Example P57]
6.4 nM | [O-][n+]1cc(-c2c(-n3cnnn3)ccc(Cl)c2F)ccc1[C@@H](Cc1cn(C(F)F)nn1)n1cc(-c2ccnc(C(F)(F)F)c2)cn1 [Example P748]
826 nM | COC(=O)N1CCC(c2cnn(C(CC3CC3)c3ccc(-c4c(-n5cnnn5)ccc(Cl)c4F)c[n+]3[O-])c2)CC1 (stereo not shown) [Example P167]
9.7 nM | CN(CC(c1ccc(-c2c(-n3cnnn3)ccc(Cl)c2F)c[n+]1[O-])n1cc(-c2ccnc(C(F)(F)F)c2)cn1)C(=O)c1ccn(C)c(=O)c1 (single isomer, unassigned) [Example P435]
105 nM | COC(=O)CC(c1ccc(-c2c(-n3cc(C(F)(F)F)nn3)ccc(Cl)c2F)c[n+]1[O-])n1cc(-c2ccc(C(=O)O)c(F)c2)cn1 (stereo not shown) [Example P890]
818 nM | Cn1cc(C[C@@H](c2ccc(-c3c(-n4cnnn4)ccc(Cl)c3F)c[n+]2[O-])n2cc(-c3ccnc(C(F)(F)F)c3)cn2)nn1 [Example P737]

IC50 | SMILES
7.7 nM | Cn1nnc(Cl)c1-c1cnn([C@H](CCOC(F)F)c2ccc(-c3c(-n4cnnn4)ccc(Cl)c3F)c[n+]2[O-])c1 [Example P726]
228 nM | Nc1ncc(-c2cnn(C(CC3CC3)c3ccc(-c4c(-n5cnnn5)ccc(Cl)c4F)c[n+]3[O-])c2)cc1F (single isomer, unassigned) [Example P194]
151 nM | CCOc1cc(C(CC2CC2)n2cc(-c3cnn(C)c(=O)c3)cn2)[n+]([O-])cc1-c1c(-n2cnnn2)ccc(Cl)c1F (stereo not shown) [Example P137]
49.2 nM | Cn1ncc(-c2cnn(C(CC3CC3)c3cc(Cl)c(-c4c(-n5cnnn5)ccc(Cl)c4F)c[n+]3[O-])c2)cc1=O (single isomer, unassigned) [Example P190]
45.7 nM | COC(=O)Nc1ccc(-c2cnn(C(CC3CCC3)c3ccc(-c4c(-n5cnnn5)ccc(Cl)c4F)c[n+]3[O-])c2)cc1 (stereo not shown) [Example P109]
93.1 nM | [O-][n+]1cc(-c2c(-n3cnnn3)ccc(Cl)c2F)ccc1[C@H](Cn1ccc(OC(F)F)n1)n1cc(-c2ccnc(C(F)(F)F)c2)cn1 [Example P534]
41.1 nM | CC(C)C(=O)N(C)CC(c1ccc(-c2c(-n3cnnn3)ccc(Cl)c2F)c[n+]1[O-])n1cc(-c2ccnc(C(F)(F)F)c2)cn1 (single isomer, unassigned) [Example P421]
44.3 nM | Cn1cc(CC(c2ccc(-c3c(C(F)F)ccc(Cl)c3F)c[n+]2[O-])n2cc(-c3cnnn3C)cn2)cn1 (single isomer, unassigned) [Example Q42]
591 nM | O=C(O)C1CCCN(C(=O)C2CC2CC(c2ccc(-c3c(-n4cnnn4)ccc(Cl)c3F)c[n+]2[O-])n2cc(-c3ccccc3)cn2)C1 (stereo not shown) [Example P224]
30.1 nM | Cn1cncc1-c1cnn(C(Cn2cc(F)cn2)c2ccc(-c3c(-n4cnnn4)ccc(Cl)c3F)c[n+]2[O-])c1 (stereo not shown) [Example P502]
> 100 nM | CC1CC1CC(c1ccc(-c2c(-n3cnnn3)ccc(Cl)c2F)c[n+]1[O-])n1cc(-c2ncnn2C(F)F)cn1 (stereo not shown) [Example P766]
14.3 nM | [O-][n+]1cc(-c2c(-n3cnnn3)ccc(Cl)c2F)ccc1C(CCOC(F)F)n1cc(-c2ccnc(C(F)(F)F)c2)cn1 (stereo not shown) [Example P462]
353 nM | [O-][n+]1cc(-c2c(-n3cc(Cl)nn3)ccc(Cl)c2F)ccc1[C@@H](CCOC(F)F)n1cc(-c2cn(C(F)F)nn2)cn1 [Example P679]
84 nM | [O-][n+]1ccc(-c2cnn(C(CC3CC3)c3ccc(-c4c(-n5cnnn5)ccc(Cl)c4F)c[n+]3[O-])c2)cc1 (single isomer, unassigned) [Example P280]
11.9 nM | CC1CC1CC(c1ccc(-c2c(-n3cnnn3)ccc(Cl)c2F)c[n+]1[O-])n1cc(-c2ccc(C(=O)O)cc2)cn1 (stereo not shown) [Example P227]
57.5 nM | Cn1ncc(-c2cnn(C(CC3CC3)c3cc(Cl)c(-c4c(-n5cnnn5)ccc(Cl)c4F)c[n+]3[O-])c2)cc1=O (stereo not shown) [Example P139]
487 nM | Cn1ncnc1-c1cnn(C(Cc2nnco2)c2ccc(-c3c(-n4cc(C(F)(F)F)nn4)ccc(Cl)c3F)c[n+]2[O-])c1 (stereo not shown) [Example P935]
70.4 nM | NC(=O)c1ccc(-c2cnn(C(Cc3ccn(C(F)F)n3)c3ccc(-c4c(-n5cc(C(F)(F)F)nn5)ccc(Cl)c4F)c[n+]3[O-])c2)cc1 (single isomer, unassigned) [Example P907]
74.5 nM | NC(=O)C1CC1CC(c1ccc(-c2c(-n3cnnn3)ccc(Cl)c2F)c[n+]1[O-])n1cc(-c2cc[n+]([O-])cc2)cn1 (single isomer, unassigned) [Example P283]

Same assay, conditions: peptide substrate of kallikrein; titration data fit to Michaelis-Menten equation

Km | kcat | SMILES
40 µM | 0.76 s⁻¹ | Cc1cc(=O)oc2cc(NC(=O)[C@H](CCCNC(=N)N)NC(=O)[C@@H]3CCCN3C(=O)CNC(=O)OCc3ccccc3)ccc12 [Z-Gly-Pro-Arg-AMC, reference compound] (Cbz-Gly-Pro-Arg-{AMC})
